Data taken from patent US20250376445A1, “COMPOUNDS AND METHODS FOR YAP/TEAD MODULATION AND INDICATIONS THEREFOR” (OPNA BIO SA, priority 2023, published 2025).

These molecules were tested on TEAD-dependent transcription (assay: TEAD-dependent transcription cell-based reporter assay (MSTO-211H+12XGTIIC luciferase)). Settings: Homo sapiens; MSTO-211H+12XGTIIC reporter cells, 24 hours compound incubation, luminescence normalized to viability; read-out: MSTO-211H GMean IC50 (uM) Cell Assay Reporter Cell Variant: TEAD.
Parameters: species or system human
Source text: The human mesothelioma cell line MSTO-211H was stably transfected with a pGL4.21 plasmid containing a synthetic promoter with 12 copies of the GTIIC TEAD response element that drives the expression of a luciferase reporter gene^1 using Lipofectamine transfection reagent (Thermo Fisher). Transfected cells were selected using puromycin and single cell clones expressing this construct (referred to as MSTO-211H+12XGTIIC) were generated by limiting dilution. MSTO-211H cells was characterized by genetic alterations in key components of the Hippo pathway^2, resulting in up-regulation of YAP/TEAD-mediated transcription. […] To evaluate TEAD inhibitors, the MSTO-211H+12XGTIIC cell line was seeded in a 96-well plate in 50 μL of culture media at 1×10^4 cells per well and incubated at 37° C. overnight. Serial dilutions of compounds (in total volume of 50 μL of culture media) were added to the cells and incubated at 37° C. for 24 hours. Each plate included cells treated with DMSO as high controls and cells treated with 20 μM of the reference compound K-975 (a known TEAD inhibitor)^3 as low controls. Cell viability was assayed by the addition of 25 μL of CellTiter-Fluor reagent (Promega) followed by a 30-minute incubation at 37° C. and quantification of the fluorescence signal (Ex400/Em505). Subsequently, luciferase expression was assayed by the addition of 25 μL of ONE-Glo reagent (Promega) followed by a 10-minute incubation at room temperature and quantification of the luminescence signal. The luminescence signal was normalized to the fluorescence signal to correct for any loss in cell viability over the 24-hour compound incubation period. The percentage of inhibition of normalized luminescence signal, indicative of compound-mediated inhibition of TEAD-dependent transcription, at individual compound concentrations relative to high and low controls was calculated. The data were analyzed by using nonlinear regression to generate IC50 values for individual compounds.

SMILES | IC50
C[C@H](NC(=O)OC(C)(C)C)C(=O)N1CCc2c(cccc2-c2ccc(C(F)(F)F)cc2)C1 [O-0195, tert-butyl (S)-(1-oxo-1-(5-(4-(trifluoromethyl)phenyl)-3,4-dihydroisoquinolin-2(1H)-yl)propan-2-yl)carbamate] | > 100 µM
CC(C)C[C@@H](NS(C)(=O)=O)C(=O)N1CCc2c(cccc2-c2ccc(C(F)(F)F)cc2)C1 [O-0139, (R)-N-(4-methyl-1-oxo-1-(5-(4-(trifluoromethyl)phenyl)-3,4-dihydroisoquinolin-2(1H)-yl)pentan-2-yl)methanesulfonamide] | 0.001 to 10 µM
O=C(c1cccc2sc(C(F)(F)F)nc12)N1CCc2c(cccc2C(F)c2ccc(C(F)(F)F)cc2)C1 (centres unmarked) [O-0070, (5-(fluoro(4-(trifluoromethyl)phenyl)methyl)-3,4-dihydroisoquinolin-2(1H)-yl)(2-(trifluoromethyl)benzo[d]thiazol-4-yl)methanone] | 0.001 to 10 µM
O=C(CCS(=O)(=O)C(F)(F)F)N1CCc2ccc(C(F)(F)c3ccc(C(F)(F)F)nc3)cc2C1 [O-0062, 1-(7-(difluoro(6-(trifluoromethyl)pyridin-3-yl)methyl)-3,4-dihydroisoquinolin-2(1H)-yl)-3-((trifluoromethyl)sulfonyl)propan-1-one] | 0.001 to 10 µM
Nc1nc2ccc(C(=O)N3CCc4c(cccc4C(=O)c4ccc(C(F)(F)F)cc4)C3)cc2[nH]1 [O-0069, (2-amino-1H-benzo[d]imidazol-6-yl)(5-(4-(trifluoromethyl)benzoyl)-3,4-dihydroisoquinolin-2(1H)-yl)methanone] | 0.001 to 10 µM
CS(=O)(=O)c1nc(C(=O)N2CCc3c(cccc3-c3ccc(C(F)(F)F)cc3)C2)c[nH]1 [O-0193, (2-(methylsulfonyl)-1H-imidazol-4-yl)(5-(4-(trifluoromethyl)phenyl)-3,4-dihydroisoquinolin-2(1H)-yl)methanone] | 10 to 100 µM
COC(c1ccc(C(F)(F)F)cc1)c1cccc2c1CCN(C(=O)CCS(C)(=O)=O)C2 (centres unmarked) [O-0078, 1-(5-(methoxy(4-(trifluoromethyl)phenyl)methyl)-3,4-dihydroisoquinolin-2(1H)-yl)-3-(methylsulfonyl)propan-1-one] | 0.001 to 10 µM
O=C(c1ccc(C(F)(F)F)cc1)c1cccc2c1CCN(C(=O)Cc1c[nH]cn1)C2 [O-0047, 2-(1H-imidazol-4-yl)-1-(5-(4-(trifluoromethyl)benzoyl)-3,4-dihydroisoquinolin-2(1H)-yl)ethan-1-one] | 0.001 to 10 µM
O=C(CCS(=O)(=O)C(F)(F)F)N1CCc2cc(-c3ccc(C(F)(F)F)c(F)c3)ccc2C1 [O-0130, 1-(6-(3-fluoro-4-(trifluoromethyl)phenyl)-3,4-dihydroisoquinolin-2(1H)-yl)-3-((trifluoromethyl)sulfonyl)propan-1-one] | 0.001 to 10 µM
O=C(c1ccc(C(F)(F)F)cc1)c1cccc2c1CCN(C(=O)Cc1cocn1)C2 [O-0067, 2-(oxazol-4-yl)-1-(5-(4-(trifluoromethyl)benzoyl)-3,4-dihydroisoquinolin-2(1H)-yl)ethan-1-one] | 0.001 to 10 µM
C[C@H](N)C(=O)N1CCc2c(cccc2-c2ccc(C(F)(F)F)cc2)C1 [O-0194, (S)-2-amino-1-(5-(4-(trifluoromethyl)phenyl)-3,4-dihydroisoquinolin-2(1H)-yl)propan-1-one] | 0.001 to 10 µM
C=CC(=O)N1CCc2ccc(-c3ccc(C(F)(F)F)cc3)cc2C1 [O-0113, 1-(7-(4-(trifluoromethyl)phenyl)-3,4-dihydroisoquinolin-2(1H)-yl)prop-2-en-1-one] | 0.001 to 10 µM
O=C(c1ccc(C(F)(F)F)cc1)c1cccc2c1CCN(C(=O)c1ncc(C(F)(F)F)[nH]1)C2 [O-0072, (5-(trifluoromethyl)-1H-imidazol-2-yl)(5-(4-(trifluoromethyl)benzoyl)-3,4-dihydroisoquinolin-2(1H)-yl)methanone] | 0.001 to 10 µM
O=C(c1ccc(C(F)(F)F)cc1)c1cccc2c1CCN(C(=O)Cc1ncc[nH]1)C2 [O-0071, 2-(1H-imidazol-2-yl)-1-(5-(4-(trifluoromethyl)benzoyl)-3,4-dihydroisoquinolin-2(1H)-yl)ethan-1-one] | 0.001 to 10 µM
